Source: publication PMC5253651 (Nature Communications, 2017)
Where two headings read alike, the source gives them in different places. Marks after values point to notes of the source that are not given here.

Columns and labels:
human FPPS [1] = biological target: T1, human FPPS (Homo sapiens, UniProt P14324); assay: Isothermal titration calorimetry (ITC) binding assay; parameters: His6 (N); made in house; host or cells: Escherichia coli BL21 (DE3)
T1 sequence (P14324 1-353 isoform P14324-2): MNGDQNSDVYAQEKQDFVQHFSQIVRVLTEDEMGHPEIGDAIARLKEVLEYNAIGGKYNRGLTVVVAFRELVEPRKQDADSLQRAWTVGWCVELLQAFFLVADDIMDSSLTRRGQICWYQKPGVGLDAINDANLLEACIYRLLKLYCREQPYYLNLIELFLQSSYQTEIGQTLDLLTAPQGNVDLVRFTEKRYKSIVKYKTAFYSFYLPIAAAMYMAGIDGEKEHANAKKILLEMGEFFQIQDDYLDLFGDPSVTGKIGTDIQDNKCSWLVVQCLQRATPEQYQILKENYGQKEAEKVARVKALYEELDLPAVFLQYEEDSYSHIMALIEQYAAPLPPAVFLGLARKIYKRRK
Protocol: Ligand (DMAPP, GPP and FPP) and MgCl2 solutions were prepared in the used dialysate. Each titration experiment consisted of a first 1 μl injection followed by 18 2 μl injections of a ligand solution into the 204.1 μl calorimetric cell loaded with the enzyme solution. […] When added, the concentration of MgCl2 was 5 mM. Heats of dilution were measured by injecting the ligands into the buffer alone and subtracted from the corresponding titration data. The data were fitted to the single-site-binding model implemented in the Origin software package provided with the ITC instrument.

human FPPS [2] = biological target: T1, human FPPS
Protocol: Reaction calorimetry was also carried out at 30 °C with a MicroCal iTC200 system. The enzyme and substrates were prepared in the reaction buffer (50 mM HEPES (pH 7.5), 150 mM NaCl, 2 mM MgCl2, 2 mM β-mercaptoethanol and 5% glycerol) in the same way described for the binding experiments. […] When added, FPP was preincubated together with the enzyme. The concentration of the enzyme in the cell was 400–500 nM, and those of the substrates in the syringe were 0.4–4 mM. Heats of dilution were measured and subtracted from the actual reaction data. […] Briefly, The molar reaction enthalpy (ΔH) was determined first based on the relationship:
in which Q is the total heat associated with producing n moles of product, [S0] is the starting concentration of the limiting substrate and V is the volume of the calorimetric cell. Q was calculated by integrating the thermal power (dQ/dt) measured over the complete course of reaction, whereas [S0] and V were known. Once ΔH was determined, the substrate concentration ([S]) could be determined as a function of time as described in the equation:
The rate of reaction could be calculated from dQ/dt for any given time point:
For kinetic measurements, the temporal experimental heat flow must be monitored accurately. […] Km and Vmax values were determined by fitting the rate data to the following equation[29]:

FPPS = conditions: cited from earlier work
N-BP-bound FPPS complex = conditions: binding of IPP to an N-BP-bound FPPS complex; cited from earlier work
[3] = ITC, 30 °C, titrated in absence of Mg2+, triplicate, read-out: Kd
[4] = ITC, 30 °C, titrated in presence of Mg2+ (5 mM MgCl2), triplicate, read-out: Kd
[5] = ITC, 30 °C, titrated in absence of Mg2+, triplicate
[6] = ITC, 30 °C, titrated in presence of Mg2+ (5 mM MgCl2), triplicate

SMILES	Kd (human FPPS [1]; [3])	Kd (human FPPS [1]; [4])	TΔS (human FPPS [1]; [5])	n (molar binding ratio) (human FPPS [1]; [5])	ΔH (human FPPS [1]; [5])	TΔS (human FPPS [1]; [6])	n (molar binding ratio) (human FPPS [1]; [6])	ΔH (human FPPS [1]; [6])	also measured
CC(C)=CCC/C(C)=C/CC/C(C)=C/CO[P@@](=O)(O)OP(=O)(O)O (stereo in doubt) [FPP, farnesyl pyrophosphate]	5.3 ± 0.4 µM	6 ± 0.6 µM							Kd (human FPPS [1]; summary of ITC values in absence and presence of Mg2+, read-out: Kd for binding to the allosteric pocket): 5 to 6 µM
CC(C)=CCOP(=O)(O)OP(=O)(O)O [DMAPP, dimethylallyl pyrophosphate]			1.6 kcal/mol	1 ^†	-4.5 ± 0.2 kcal/mol	2.1 kcal/mol	0.87±0.01	-5.8 ± 0.1 kcal/mol	Kd (human FPPS [1]; Kd, ITC, 30 °C, titrated in absence of Mg2+, triplicate): 43.7 ± 4.3 µM; Kd (human FPPS [1]; Kd, ITC, 30 °C, titrated in presence of Mg2+ (5 mM MgCl2), triplicate): 2.2 ± 0.2 µM
CC(C)=CCC/C(C)=C/CC/C(C)=C/COP(=O)(O)OP(=O)(O)O [FPP, farnesyl pyrophosphate]			1.8 kcal/mol	1.12±0.01	-5.5 ± 0.1 kcal/mol	1.7 kcal/mol	1.17±0.02	-5.6 ± 0.1 kcal/mol	effect on FPPS reaction rate curve (product inhibition) (human FPPS [2]; same excess experiment, reaction with an initial amount of FPP preincubated with enzyme): depressed rate curve
CC(C)=CCC/C(C)=C/COP(=O)(O)OP(=O)(O)O [GPP, geranyl pyrophosphate]	7.6 ± 0.9 µM	2.1 ± 0.3 µM	1.8 kcal/mol	0.80±0.03	-5.3 ± 0.2 kcal/mol	0.2 kcal/mol	0.79±0.01	-7.7 ± 0.2 kcal/mol	Km (FPPS; previously reported Km value for GPP): 2.07 µM
C=C(C)CCO[P@@](=O)(O)OP(=O)(O)O [IPP, isopentenyl pyrophosphate]									Km (FPPS; literature value for IPP): 1.8 µM; Kd (N-BP-bound FPPS complex): 0.9 µM; effect on enzyme activity (substrate inhibition) (human FPPS [2]; experiment carried out in excess of IPP): significantly reduced enzyme activity
O=P(O)(O)OP(=O)(O)O [PPi]									binding affinity by ITC (result in words) (human FPPS [1]; both in the presence and absence of Mg2+): did not demonstrate an apparent binding event
